The source of these data is patent publication US5006531A, “5,6-dihydro(1H-indolo(3,2-C)quinoline-6,4'-piperidines) and related compounds which are useful for treating pain, psychosis or convulsions” (Hoechst-Roussel Pharmaceuticals Inc., priority 1989, dated 1991).

Holding throughout (type): in vivo
One experiment relates to mice. In words: 2-phenyl-1,4-benzoquinone-induced writhing (PQW) test in mice (analgesic activity). Conditions: for PQW: s.c. The source says: Compounds I of the present invention are useful as analgesic agents due to their ability to alleviate pain in mammals. […] Exptl. Biol. Med., 95, 729 (1957)].
A general note: An intraperitoneal irritant provokes the stretching counted in writhing tests.

For the next experiment, the system named is CK-1 male mice. In words: climbing mice assay (apomorphine-induced climbing, antipsychotic activity). The conditions noted are these: Mus musculus, apomorphine 1.5 mg/kg s.c. As to the method:
Antipsychotic activity is determined in the climbing mice assay by methods similar to those described by P. Protais, et al., Psychopharmacol., 50, 1 (1976) and B. Costall, Eur. J. Pharmacol., 50, 39, (1978).
The subject CK-1 male mice (23-27 grams) are group-housed under standard laboratory conditions. The mice are individually placed in wire mesh stick cages (4"×4" by 10") and are allowed one hour for adaptation and exploration of the new environment. Then apomorphine is injected subcutaneously at 1.5 mg/kg, a dose causing climbing in all subjects for 30 minutes. Compounds to be tested for antipsychotic activity are injected intraperitoneally 30 minutes prior to the apomorphine challenge at a screening dose of 10 mg/kg.
For evaluation of climbing, 3 readings are taken at 10, 20 and 30 minutes after apomorphine administration according to the following scale:
4 paws on bottom (no climbing)
2 paws on the wall (rearing)
4 paws on the wall (full climb)
Mice consistently climbing before the injection of apomorphine are discarded.
With full-developed apomorphine climbing, the animals are hanging onto the cage walls, rather motionless, over long periods of time. By constrast, climbs due to mere motor stimulation usually last only a few seconds.
The climbing scores are individually totaled (maximum score: 6 per mouse over 3 readings) and the total score of the control group (vehicle intraperitoneally; apomorphine subcutaneously) is set to 100%. ED50 values with 95% confidence limits, calculated by a linear regression analysis, of some of the compounds of this invention are presented in Table 2.
Results of the climbing mice assay for some of the compounds of this invention along with a result for a reference compounds are presented in Table 2.

The next experiment relates to male mice. In words: supramaximal electroshock (SES) assay in the mouse (anticonvulsant activity). As to the method: Compounds I of the present invention are also useful as anticonvulsant agents due to their anticonvulsant activity in mammals. Anticonvulsant activity is measured in the mouse using the supramaximal electroshock (SES) assay described in Arch. Int. Pharmacodyn. 92: 97-107, 1952. In this procedure groups of male mice, 18-30 grams, are used. Drugs are prepared using distilled water and, if insoluble, a surfactant is added. Control animals receive vehicle. Drugs are routinely administered intraperitoneally (i.p.). The dosage volume is 10 ml/kg. A primary screen is given a 30 minute pretreat. The animal's eyes are placed across the output terminals of an A.C. shocker that delivers 206 volts rms for 300 msec. Electrode paste coats the animal's eyes at the point of contact with the terminals. […] Protection is expressed as normalized percent inhibition relative to vehicle control.
A time response is carried out using six animals/group. Animals are tested at 30, 60 and 120 minutes postdrug. Additional time periods are tested if indicated by previous tests. When the peak activity time has been determined, a dose response is initiated using 10 animals/group at that time period. The ED50 and 95% confidence interval are calculated by computer probit analysis.
Test results of supramaximal electroshock for a compound of this invention along with a result for a reference compound are presented in Table 3.

Setting [1] is: ip, 30 minutes prior to apomorphine challenge.

In general, ED50 refers to the dose at which the effect has come halfway, by size or by number of responders. Read a low ED50 as an effect at a small dose.

Structures can show the parent of a compound that is named as a salt.

For the compound `CN1CCC2(CC1)c1c([nH]c3ccccc13)-c1ccccc1N2C` [1',5-Dimethyl-5,6-dihydrospiro[1H-indolo[3,2-c]quinoline-6,4'-piperidine]fumarate, hemiethanolate], the ED50 was 10.3 mg/kg in the experiment with mice (Mus musculus, sc) and 19.8 mg/kg in the experiment with CK-1 male mice (setting [1]).
For the compound `CC(=O)N1CCC2(CC1)NC1=CC=CCC1=C1N=c3ccccc3=C12` [1'-Acetyl-5,6-dihydrospiro[1H-indolo[3,2-c]quinoline-6,4'-piperidine]], in the experiment with mice (at 20 mg/kg), the PQW is given as -66%.
Regarding `CCN1CCC2(CC1)NC1=CC=CCC1=C1N=c3ccccc3=C12` [1'-Ethyl-5,6-dihydrospiro[1H-indolo[3,2-c]quinoline-6,4'-piperidine]], the “supramaximal electroshock, normalized percent inhibition relative to vehicle control” value with male mice (at 60 mg/kg, i.p.) is -80%.
As to `c1ccc(CCN2CCC3(CC2)Nc2ccccc2-c2[nH]c4ccccc4c23)cc1` [1'-Phenethyl-5,6-dihydrospiro[1H-indolo[3,2-c]quinoline-6,4'-piperidine]fumarate], the PQW in the experiment on mice (at 5 mg/kg) is recorded as -55%.
In the experiment on CK-1 male mice (setting [1]), `CN1CCC2(CC1)c1c([nH]c3ccccc13)-c1ccc(Cl)cc1N2C` [3-Chloro-5,1'-dimethyl-5,6-dihydrospiro[1H-indolo-[3,2-c]quinoline-6,4'-piperidine]dihydrochloride] registered an ED50 of 13.2 mg/kg.
With `CNC1=Nc2ccc(Cl)cc2C(c2ccccc2)=[N+]([O-])C1` [Chlorodiazepoxide, reference compound], it took a dose of 8 mg/kg to reach the 50% effect level in the experiment with male mice (ip, reference compound) (ED50).
In turn, `CN1CCN(C2=Nc3cc(Cl)ccc3Nc3ccccc32)CC1` [Clozapine, reference compound] registered an ED50 in the experiment with CK-1 male mice (sc, reference compounds) of 8.1 mg/kg.
Turning to `CC(C)=CCN1CCC2(C)c3cc(O)ccc3CC1C2C` (stereo not drawn) [Pentazocine, reference compound], the PQW in the experiment with mice (at 1.3 mg/kg, reference compound) is reported as -50%.
